Columns and labels:
Type in all cases: functional
Details in all cases: read-out: Activity
NCI-H522 = assay: Growth inhibition of human NCI-H522 cells assessed as cell growth at 10 uM incubated for 48 hrs by sulforhodamine B assay relative to control
COLO 205 = assay: Growth inhibition of human COLO 205 cells assessed as cell growth at 10 uM incubated for 48 hrs by sulforhodamine B assay relative to control
EKVX = assay: Growth inhibition of human EKVX cells assessed as cell growth at 10 uM incubated for 48 hrs by sulforhodamine B assay relative to control
SF-539 = assay: Growth inhibition of human SF-539 cells assessed as cell growth at 10 uM incubated for 48 hrs by sulforhodamine B assay relative to control
HCT-116 = assay: Growth inhibition of human HCT-116 cells assessed as cell growth at 10 uM incubated for 48 hrs by sulforhodamine B assay relative to control
786-0 = assay: Growth inhibition of human 786-0 cells assessed as cell growth at 10 uM incubated for 48 hrs by sulforhodamine B assay relative to control
HOP-62 = assay: Growth inhibition of human HOP-62 cells assessed as cell growth at 10 uM incubated for 48 hrs by sulforhodamine B assay relative to control
SF-268 = assay: Growth inhibition of human SF-268 cells assessed as cell growth at 10 uM incubated for 48 hrs by sulforhodamine B assay relative to control
MCF7 = assay: Growth inhibition of human MCF7 cells assessed as cell growth at 10 uM incubated for 48 hrs by sulforhodamine B assay relative to control
SW-620 = assay: Growth inhibition of human SW-620 cells assessed as cell growth at 10 uM incubated for 48 hrs by sulforhodamine B assay relative to control
U-251 = assay: Growth inhibition of human U-251 cells assessed as cell growth at 10 uM incubated for 48 hrs by sulforhodamine B assay relative to control
T47D = assay: Growth inhibition of human T47D cells assessed as cell growth at 10 uM incubated for 48 hrs by sulforhodamine B assay relative to control
SK-MEL-5 = assay: Growth inhibition of human SK-MEL-5 cells assessed as cell growth at 10 uM incubated for 48 hrs by sulforhodamine B assay relative to control
TK-10 = assay: Growth inhibition of human TK-10 cells assessed as cell growth at 10 uM incubated for 48 hrs by sulforhodamine B assay relative to control
CCRF-CEM = assay: Growth inhibition of human CCRF-CEM cells assessed as cell growth at 10 uM incubated for 48 hrs by sulforhodamine B assay relative to control
RPMI-8226 = assay: Growth inhibition of human RPMI-8226 cells assessed as cell growth at 10 uM incubated for 48 hrs by sulforhodamine B assay relative to control
NCI-H226 = assay: Growth inhibition of human NCI-H226 cells assessed as cell growth at 10 uM incubated for 48 hrs by sulforhodamine B assay relative to control
SK-MEL-2 = assay: Growth inhibition of human SK-MEL-2 cells assessed as cell growth at 10 uM incubated for 48 hrs by sulforhodamine B assay relative to control
SK-OV-3 = assay: Growth inhibition of human SK-OV-3 cells assessed as cell growth at 10 uM incubated for 48 hrs by sulforhodamine B assay relative to control
NCI/ADR-RES = assay: Growth inhibition of human NCI/ADR-RES cells assessed as cell growth at 10 uM incubated for 48 hrs by sulforhodamine B assay relative to control
Malme-3M = assay: Growth inhibition of human Malme-3M cells assessed as cell growth at 10 uM incubated for 48 hrs by sulforhodamine B assay relative to control
MOLT-4 = assay: Growth inhibition of human MOLT-4 cells assessed as cell growth at 10 uM incubated for 48 hrs by sulforhodamine B assay relative to control
LOX IMVI = assay: Growth inhibition of human LOX IMVI cells assessed as cell growth at 10 uM incubated for 48 hrs by sulforhodamine B assay relative to control
DU-145 = assay: Growth inhibition of human DU-145 cells assessed as cell growth at 10 uM incubated for 48 hrs by sulforhodamine B assay relative to control
SNB-19 = assay: Growth inhibition of human SNB-19 cells assessed as cell growth at 10 uM incubated for 48 hrs by sulforhodamine B assay relative to control
M14 = assay: Growth inhibition of human M14 cells assessed as cell growth at 10 uM incubated for 48 hrs by sulforhodamine B assay relative to control
MDA-MB-231 = assay: Growth inhibition of human MDA-MB-231 cells assessed as cell growth at 10 uM incubated for 48 hrs by sulforhodamine B assay relative to control
MDA-MB-435 = assay: Growth inhibition of human MDA-MB-435 cells assessed as cell growth at 10 uM incubated for 48 hrs by sulforhodamine B assay relative to control
SK-MEL-28 = assay: Growth inhibition of human SK-MEL-28 cells assessed as cell growth at 10 uM incubated for 48 hrs by sulforhodamine B assay relative to control
NCI-H23 = assay: Growth inhibition of human NCI-H23 cells assessed as cell growth at 10 uM incubated for 48 hrs by sulforhodamine B assay relative to control
RXF 393 = assay: Growth inhibition of human RXF 393 cells assessed as cell growth at 10 uM incubated for 48 hrs by sulforhodamine B assay relative to control
BT-549 = assay: Growth inhibition of human BT-549 cells assessed as cell growth at 10 uM incubated for 48 hrs by sulforhodamine B assay relative to control
SNB-75 = assay: Growth inhibition of human SNB-75 cells assessed as cell growth at 10 uM incubated for 48 hrs by sulforhodamine B assay relative to control
A549 = assay: Growth inhibition of human A549/ATCC cells assessed as cell growth at 10 uM incubated for 48 hrs by sulforhodamine B assay relative to control
HL-60(TB) = assay: Growth inhibition of human HL-60(TB) cells assessed as cell growth at 10 uM incubated for 48 hrs by sulforhodamine B assay relative to control
HCT-15 = assay: Growth inhibition of human HCT-15 cells assessed as cell growth at 10 uM incubated for 48 hrs by sulforhodamine B assay relative to control
OVCAR-8 = assay: Growth inhibition of human OVCAR-8 cells assessed as cell growth at 10 uM incubated for 48 hrs by sulforhodamine B assay relative to control
KM12 = assay: Growth inhibition of human KM12 cells assessed as cell growth at 10 uM incubated for 48 hrs by sulforhodamine B assay relative to control
MDA-MB-468 = assay: Growth inhibition of human MDA-MB-468 cells assessed as cell growth at 10 uM incubated for 48 hrs by sulforhodamine B assay relative to control
IGROV-1 = assay: Growth inhibition of human IGROV-1 cells assessed as cell growth at 10 uM incubated for 48 hrs by sulforhodamine B assay relative to control

| Compound | growth at 10 µM (NCI-H522) [%] | growth at 10 µM (COLO 205) [%] | growth at 10 µM (EKVX) [%] | growth at 10 µM (SF-539) [%] | growth at 10 µM (HCT-116) [%] | growth at 10 µM (786-0) [%] | growth at 10 µM (HOP-62) [%] | growth at 10 µM (SF-268) [%] | growth at 10 µM (MCF7) [%] | growth at 10 µM (SW-620) [%] | growth at 10 µM (U-251) [%] | growth at 10 µM (T47D) [%] | growth at 10 µM (SK-MEL-5) [%] | growth at 10 µM (TK-10) [%] | growth at 10 µM (CCRF-CEM) [%] | growth at 10 µM (NCI-H226) [%] | growth at 10 µM (SK-MEL-2) [%] | growth at 10 µM (SK-OV-3) [%] | growth at 10 µM (NCI/ADR-RES) [%] | growth at 10 µM (Malme-3M) [%] | other results |
| --- | --- | --- | --- | --- | --- | --- | --- | --- | --- | --- | --- | --- | --- | --- | --- | --- | --- | --- | --- | --- | --- |
| CC(=O)Nc1cccc(NC(=O)c2ccc(C(=O)Nc3cc(CCl)cc(NC(C)=O)c3)cc2)c1 | 90.8 | 108 | 114 | 109 | 116 | 112 | 112 | 115 | 102 | 114 | 113 | 95.8 | 102 | 113 | 90.8 | 101 | 100 | 113 | 109 | 99.6 | growth at 10 µM (RPMI-8226): 98.8%; growth at 10 µM (MOLT-4): 93.3%; growth at 10 µM (LOX IMVI): 110%; growth at 10 µM (DU-145): 119%; growth at 10 µM (SNB-19): 104%; growth at 10 µM (M14): 104%; growth at 10 µM (MDA-MB-231): 115%; growth at 10 µM (MDA-MB-435): 108%; growth at 10 µM (SK-MEL-28): 115%; growth at 10 µM (NCI-H23): 107%; growth at 10 µM (RXF 393): 114%; growth at 10 µM (BT-549): 108%; growth at 10 µM (SNB-75): 113%; growth at 10 µM (A549): 118%; growth at 10 µM (HL-60(TB)): 93.4%; growth at 10 µM (HCT-15): 109%; growth at 10 µM (OVCAR-8): 108%; growth at 10 µM (KM12): 118%; growth at 10 µM (MDA-MB-468): 82.2% |
| CC(=O)Nc1cc(CCl)cc(NC(=O)c2ccc(C(=O)NCCCN(C)C)cc2)c1 | 98.7 | 111 | 101 | 92.8 | 103 | 104 | 106 | 106 | 81.5 | 108 | 103 | 97.6 | 108 | 107 | 103 | 105 | 102 | 107 | 109 | 109 | growth at 10 µM (MOLT-4): 105%; growth at 10 µM (LOX IMVI): 95.2%; growth at 10 µM (DU-145): 112%; growth at 10 µM (SNB-19): 117%; growth at 10 µM (M14): 107%; growth at 10 µM (MDA-MB-231): 139%; growth at 10 µM (MDA-MB-435): 105%; growth at 10 µM (SK-MEL-28): 107%; growth at 10 µM (NCI-H23): 97.8%; growth at 10 µM (RXF 393): 116%; growth at 10 µM (BT-549): 105%; growth at 10 µM (SNB-75): 86%; growth at 10 µM (A549): 98.5%; growth at 10 µM (HL-60(TB)): 104%; growth at 10 µM (HCT-15): 104%; growth at 10 µM (OVCAR-8): 111%; growth at 10 µM (KM12): 107%; growth at 10 µM (MDA-MB-468): 92.9%; growth at 10 µM (IGROV-1): 136% |
| CC(=O)Nc1cc(CO)cc(NC(=O)c2ccc(C(=O)NCCCN(C)C)cc2)c1 | 88.4 | 114 | 108 | 110 | 104 | 102 | 110 | 114 | 101 | 107 | 107 | 92.9 | 96.4 | 99 | 90 | 92 | 92.9 | 106 | 112 | 100 | growth at 10 µM (RPMI-8226): 98.2%; growth at 10 µM (MOLT-4): 95.4%; growth at 10 µM (LOX IMVI): 97.4%; growth at 10 µM (DU-145): 115%; growth at 10 µM (SNB-19): 101%; growth at 10 µM (M14): 98.6%; growth at 10 µM (MDA-MB-231): 105%; growth at 10 µM (MDA-MB-435): 103%; growth at 10 µM (SK-MEL-28): 108%; growth at 10 µM (NCI-H23): 104%; growth at 10 µM (RXF 393): 116%; growth at 10 µM (BT-549): 98.6%; growth at 10 µM (SNB-75): 87.8%; growth at 10 µM (A549): 107%; growth at 10 µM (HL-60(TB)): 104%; growth at 10 µM (HCT-15): 106%; growth at 10 µM (OVCAR-8): 108%; growth at 10 µM (KM12): 118%; growth at 10 µM (MDA-MB-468): 91.2% |

Reference: ChEMBL document CHEMBL4715697, “Synthesis and biological activity of benzamide DNA minor groove binders” (2016)
